Test results from ChEMBL document CHEMBL1201862, “PubChem BioAssay data set” (2004).
Activity calls are given as the source filed them.

What was measured:
[1] = test system: INS1; assay: INS-1E survival protection against cytokine death – cell-based, luminescence, retest, dose response (AID 449756); type: functional; details: Rattus norvegicus;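 also: cell death triggered by IL-1 beta plus TNF-alpha plus IFN-gamma mixture; protective hits raise ATP signal compared with cytokine alone wells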
[2] = fluconazole-exposed Candida albicans growth modulators – fluorescence, retest, confirmation (AID 2467); type: functional, cell-based
[3] = NIH-3T3 fibroblast cytotoxicity, dose response, cytotoxicity control, cell-based, fluorescence, Alamar Blue, secondary assay (AID 2327); type: functional;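 also: NIH-3T3 mouse fibroblasts cultured with fluconazole at 8 µg/mL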
[4] = target: Cytochrome P450 2C19 (Homo sapiens, UniProt P33261); assay: Cytochrome panel assay with activity outcomes. Panel member name: p450-cyp2c19 Compounds with AC50 equal or less than 10 uM are considered active; type: functional; details: read-out: AC50
[5] = target: Cytochrome P450 3A4 (Homo sapiens, UniProt P08684);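 also: CYP3A4 tested as one member of a cytochrome P450 panel screen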
[6] = test system: H9c2; assay: cells; type: functional, cell-based; details: Rattus norvegicus, H9c2, Myocardium;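 also: confirmatory concentration-response retest of ultra-high-throughput screening hits for modulation of myocardial damage; cell death induced by hydrogen peroxide oxidative stress; compound pretreatment for 60 min then peroxide exposure for 2 h; potency is for protecting the cells against peroxide damage rather than for killing them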
[7] = Luminescence Cell-Based Dose Retest to Confirm Inhibitors of Cancer Stem Cells. [Related pubchem assays (depositor defined):AID2717, AID2721]; type: functional; details: Homo sapiens
[8] = target: T1, Heat shock factor protein 1 (Mus musculus, UniProt P38532); assay: decrease of HSF1-responsive luciferase luminescence – cell-based, NIH3T3, dose retest, confirmation (AID 2382); type: functional;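 also: NIH3T3 fibroblasts with HSF1-driven luciferase reporter stressed by proteasome inhibitor MG132; luminescence from HSF1-driven luciferase expression after 8 hours of MG132 stress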
T1 sequence (P38532 whole entry): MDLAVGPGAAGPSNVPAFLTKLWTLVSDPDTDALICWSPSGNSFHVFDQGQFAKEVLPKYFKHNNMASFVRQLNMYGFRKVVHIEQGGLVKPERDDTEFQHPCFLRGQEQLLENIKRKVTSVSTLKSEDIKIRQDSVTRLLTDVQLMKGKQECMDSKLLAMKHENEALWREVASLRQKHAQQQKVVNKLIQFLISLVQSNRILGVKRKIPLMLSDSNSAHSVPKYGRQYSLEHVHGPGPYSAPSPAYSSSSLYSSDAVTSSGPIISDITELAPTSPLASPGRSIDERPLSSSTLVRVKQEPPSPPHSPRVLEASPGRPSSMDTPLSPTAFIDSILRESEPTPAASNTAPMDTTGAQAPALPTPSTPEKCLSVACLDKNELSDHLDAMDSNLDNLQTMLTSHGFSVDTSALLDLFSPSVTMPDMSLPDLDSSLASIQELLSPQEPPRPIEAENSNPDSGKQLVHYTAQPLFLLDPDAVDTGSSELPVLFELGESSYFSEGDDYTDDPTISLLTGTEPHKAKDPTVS

[9] = viability of uninfected HEp-2 cells – cell-based, HTS, cytotoxicity control for RSV inhibitor project, dose response (AID 2410); type: functional; details: human respiratory syncytial virus
[10] = target: Cytochrome P450 2D6 (Homo sapiens, UniProt P10635);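 also: CYP2D6 member of a cytochrome P450 panel assay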
[11] = target: Cytochrome P450 2C9 (Homo sapiens, UniProt P11712)
[12] = target: T2, Cytochrome P450 1A2 (Homo sapiens, UniProt P05177);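 also: PubChem cytochrome P450 panel assay, CYP1A2 panel member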
T2 sequence (P05177 whole entry): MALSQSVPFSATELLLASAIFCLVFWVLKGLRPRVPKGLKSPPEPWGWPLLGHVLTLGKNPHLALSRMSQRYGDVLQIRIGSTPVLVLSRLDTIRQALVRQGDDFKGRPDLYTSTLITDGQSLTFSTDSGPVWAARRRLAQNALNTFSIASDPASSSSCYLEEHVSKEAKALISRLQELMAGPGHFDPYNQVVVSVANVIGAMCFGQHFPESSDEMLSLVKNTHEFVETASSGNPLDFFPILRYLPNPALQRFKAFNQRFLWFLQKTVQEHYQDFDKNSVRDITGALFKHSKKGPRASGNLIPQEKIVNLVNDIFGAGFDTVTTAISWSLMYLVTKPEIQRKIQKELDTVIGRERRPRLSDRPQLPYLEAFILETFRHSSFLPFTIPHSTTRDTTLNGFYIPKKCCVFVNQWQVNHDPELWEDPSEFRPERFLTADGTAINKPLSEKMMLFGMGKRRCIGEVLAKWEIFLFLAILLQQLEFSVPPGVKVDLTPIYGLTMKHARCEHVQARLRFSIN

[13] = target: FAD-linked sulfhydryl oxidase ALR (Homo sapiens, UniProt P55789); assay: ALR-catalysed DTT oxidation blockers – biochemical, H2O2 detection, luminescence, cherry-pick, dose response (AID 493248)
[14] = NIH3T3 cell viability loss – ATP luminescence, mouse fibroblasts, counter-screen, dose response (AID 2010); type: functional, cell-based;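 also: cells exposed to compound for about 90 hours before reading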
[15] = Trypanosoma cruzi growth suppression in host cells – NIH3T3 host cells, beta-gal luminescence, confirmation (AID 2044); type: functional, cell-based;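 also: intracellular parasites grown in NIH/3T3 mouse fibroblasts as host cells; luminescent beta-galactosidase reporter signal from transgenic T. cruzi replicating inside host cells; inhibitors lower the luminescence signal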
[16] = target: T3, Rac GTPase-activating protein 1 (Homo sapiens, UniProt Q9H0H5); assay: blockers of MgcRacGAP-driven Rac1 GTP hydrolysis – biochemical, ADP Hunter fluorescence, primary and confirmatory, confirmation (AID 624330); type: functional
T3 sequence (Q9H0H5 whole entry): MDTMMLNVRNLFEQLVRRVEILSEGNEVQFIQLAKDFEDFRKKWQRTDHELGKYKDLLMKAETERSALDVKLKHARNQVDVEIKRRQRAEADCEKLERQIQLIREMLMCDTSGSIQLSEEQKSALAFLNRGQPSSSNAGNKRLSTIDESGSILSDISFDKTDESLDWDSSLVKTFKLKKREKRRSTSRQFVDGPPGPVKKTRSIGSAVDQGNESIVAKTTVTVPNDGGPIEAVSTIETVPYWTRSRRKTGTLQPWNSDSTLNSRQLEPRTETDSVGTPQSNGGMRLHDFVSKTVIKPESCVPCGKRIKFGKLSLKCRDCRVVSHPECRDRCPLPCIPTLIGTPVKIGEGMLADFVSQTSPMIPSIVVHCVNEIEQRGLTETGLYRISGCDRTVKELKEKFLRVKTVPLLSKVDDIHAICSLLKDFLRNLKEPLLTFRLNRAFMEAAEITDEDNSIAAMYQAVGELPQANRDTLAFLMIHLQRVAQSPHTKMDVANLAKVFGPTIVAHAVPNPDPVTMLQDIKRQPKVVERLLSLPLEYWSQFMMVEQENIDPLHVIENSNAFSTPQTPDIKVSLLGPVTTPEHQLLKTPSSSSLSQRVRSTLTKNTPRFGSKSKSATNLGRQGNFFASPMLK

[17] = P. falciparum Dd2 growth inhibitors, dose response, SYBR Green, cherry-picked samples (AID 1159567); type: functional, cell-based

Chain of Cytochrome P450 3A4 (P08684 whole entry): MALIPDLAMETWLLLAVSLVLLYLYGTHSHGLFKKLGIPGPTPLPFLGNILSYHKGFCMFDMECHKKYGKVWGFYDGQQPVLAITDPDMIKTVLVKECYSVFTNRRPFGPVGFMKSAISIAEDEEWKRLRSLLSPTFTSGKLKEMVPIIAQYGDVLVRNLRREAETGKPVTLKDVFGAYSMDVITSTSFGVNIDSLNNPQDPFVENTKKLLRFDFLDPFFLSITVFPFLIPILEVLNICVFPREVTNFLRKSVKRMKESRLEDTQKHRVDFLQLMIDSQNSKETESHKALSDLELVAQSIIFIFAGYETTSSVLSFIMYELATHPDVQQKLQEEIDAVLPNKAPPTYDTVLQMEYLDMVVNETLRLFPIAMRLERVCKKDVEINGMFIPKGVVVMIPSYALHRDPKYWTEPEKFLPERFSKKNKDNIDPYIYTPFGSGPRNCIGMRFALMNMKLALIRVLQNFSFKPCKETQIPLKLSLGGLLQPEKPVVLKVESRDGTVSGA
Chain of Cytochrome P450 2D6 (P10635 whole entry): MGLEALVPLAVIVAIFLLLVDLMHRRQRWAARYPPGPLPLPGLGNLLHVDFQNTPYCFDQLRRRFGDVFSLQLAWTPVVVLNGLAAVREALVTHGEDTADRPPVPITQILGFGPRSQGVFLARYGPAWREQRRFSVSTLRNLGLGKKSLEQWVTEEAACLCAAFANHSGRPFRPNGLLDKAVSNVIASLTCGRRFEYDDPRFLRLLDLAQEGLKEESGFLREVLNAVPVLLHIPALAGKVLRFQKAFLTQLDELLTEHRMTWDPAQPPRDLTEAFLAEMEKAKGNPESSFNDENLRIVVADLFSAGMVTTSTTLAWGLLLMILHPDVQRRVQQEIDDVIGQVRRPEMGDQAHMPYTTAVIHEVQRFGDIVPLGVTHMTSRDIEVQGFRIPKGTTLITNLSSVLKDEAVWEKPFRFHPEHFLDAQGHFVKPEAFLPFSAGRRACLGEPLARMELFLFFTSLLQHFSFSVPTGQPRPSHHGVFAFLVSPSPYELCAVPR
Chain of Cytochrome P450 2C19 (P33261 whole entry): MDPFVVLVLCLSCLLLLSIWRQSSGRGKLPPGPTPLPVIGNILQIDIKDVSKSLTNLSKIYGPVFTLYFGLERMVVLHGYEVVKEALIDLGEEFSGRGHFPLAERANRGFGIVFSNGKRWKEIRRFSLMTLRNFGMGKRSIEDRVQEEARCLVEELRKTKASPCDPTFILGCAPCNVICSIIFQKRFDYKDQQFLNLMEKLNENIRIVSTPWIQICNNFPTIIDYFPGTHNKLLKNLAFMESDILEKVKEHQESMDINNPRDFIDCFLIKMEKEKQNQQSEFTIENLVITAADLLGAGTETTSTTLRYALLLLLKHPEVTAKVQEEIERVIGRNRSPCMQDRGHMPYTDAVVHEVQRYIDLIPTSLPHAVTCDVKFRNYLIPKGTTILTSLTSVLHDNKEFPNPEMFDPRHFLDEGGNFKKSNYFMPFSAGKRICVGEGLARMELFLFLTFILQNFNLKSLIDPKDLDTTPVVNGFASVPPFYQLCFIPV
Chain of FAD-linked sulfhydryl oxidase ALR (P55789 whole entry): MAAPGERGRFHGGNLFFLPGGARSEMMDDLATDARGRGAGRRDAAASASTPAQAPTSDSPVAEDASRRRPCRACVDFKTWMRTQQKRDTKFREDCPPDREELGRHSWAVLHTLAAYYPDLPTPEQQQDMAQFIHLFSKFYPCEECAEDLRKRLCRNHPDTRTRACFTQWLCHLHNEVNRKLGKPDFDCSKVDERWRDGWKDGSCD
Chain of Cytochrome P450 2C9 (P11712 whole entry): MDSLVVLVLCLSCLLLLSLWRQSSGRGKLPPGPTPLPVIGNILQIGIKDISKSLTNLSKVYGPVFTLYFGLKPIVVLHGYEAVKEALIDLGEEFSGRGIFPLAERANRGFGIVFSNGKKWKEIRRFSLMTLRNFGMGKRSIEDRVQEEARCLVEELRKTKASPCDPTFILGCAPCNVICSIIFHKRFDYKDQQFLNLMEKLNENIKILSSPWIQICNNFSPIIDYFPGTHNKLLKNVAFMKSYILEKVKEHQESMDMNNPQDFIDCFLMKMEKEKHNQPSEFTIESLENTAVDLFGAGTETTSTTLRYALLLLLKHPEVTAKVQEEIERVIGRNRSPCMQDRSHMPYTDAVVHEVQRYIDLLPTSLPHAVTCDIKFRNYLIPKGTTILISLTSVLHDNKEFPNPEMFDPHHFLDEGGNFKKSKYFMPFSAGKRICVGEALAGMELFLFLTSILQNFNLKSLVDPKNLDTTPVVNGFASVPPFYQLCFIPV

## CN1/C(=C\C(=O)C[n+]2ccc(C(=O)c3ccccc3)cc2)C(C)(C)c2ccccc21
[1]
  AC50: 2.42 µM (active)
[2]
  EC50: 3.12 µM (active)
[3]
  EC50: > 150 µM (inactive)

## COc1ccccc1Nc1nc(-c2sc(NC(=O)c3ccccc3)nc2C)cs1
[4]
  AC50: 3.16 µM (inconclusive)
[5]
  AC50: 15.8 µM (inconclusive)

## Cc1cc(Nc2ccccc2C(=O)O)nc2nc3ccccc3c(=O)n12
[6]
  IC50: 14.2 µM (active)

## COc1ccc(NC(=S)N(CCc2nc3cc(C)c(C)cc3[nH]2)Cc2cccnc2)cc1
[5]
  AC50: 0.891 µM (inconclusive)

## CC(C)(C)c1ccc(C(=O)NC(=S)Nc2nc3c(s2)CCCC3)cc1
[7]
  AC50: 2.02 µM (active)
[8]
  EC50: 0.192 µM (active)

## Cc1cccc(C)c1NC(=O)c1c(C)nn(-c2ccccc2)c1Cl
[9]
  CC50: 42.5 µM (active)

## CN(C(=O)CSc1nnc(-c2ccco2)o1)C1CCCCC1
[2]
  EC50: 5.16 µM (active)
[3]
  EC50: > 160 µM (inactive)

## Cc1cc(-n2c(SCC(=O)Nc3ccc(F)c(F)c3)nc3nnc(C)c-3c2N)ccc1Cl
[1]
  AC50: 5.57 µM (active)

## Cc1ccc(C(=O)OCC(=O)Nc2sccc2C(N)=O)cc1NC(=O)c1ccco1
[6]
  IC50: > 79 µM (inactive)

## CC(C)CN1CCCC2(CCN(C(=O)Oc3ccccc3)CC2)C1
[10]
  AC50: 20 µM (inconclusive)
[5]
  AC50: 25.1 µM (inconclusive)

## CCNc1ncc2nc(-c3cn(C)c4ccccc34)c(=O)n(CCC#N)c2n1
[5]
  AC50: 12.6 µM (inconclusive)

## CCn1c(SCC(=O)Nc2cccc(C)c2)nc2ccccc2c1=O
[9]
  CC50: > 50 µM (active)

## O=C(Nc1ccc(C(=O)N2CCCc3ccccc32)cc1)c1cccs1
[9]
  CC50: 35.4 µM (active)

## Cn1cc(-c2nc3cncnc3n(C3CC3)c2=O)c2ccccc21
[5]
  AC50: 7.94 µM (inconclusive)

## O=[N+]([O-])c1cc(Cl)cc2c1nc(NCCO)c1ccccc12
[5]
  AC50: 3.16 µM (inconclusive)

## Nc1nc(Cc2ccccc2)nc(Cc2ccccc2)c1-c1ccccc1
[11]
  AC50: 3.16 µM (inconclusive)
[4]
  AC50: 6.31 µM (inconclusive)
[10]
  AC50: 3.16 µM (inconclusive)
[12]
  AC50: 1 µM (inconclusive)
[5]
  AC50: 3.16 µM (inconclusive)

## COC(=O)c1cc(C(=O)OCC(=O)N2c3ccccc3NC(=O)C2(C)C)cc([N+](=O)[O-])c1
[6]
  IC50: 10.8 µM (active)

## COc1ccccc1NC(=O)c1c(NC(=O)CCC(=O)O)sc2c1CCCCC2
[13]
  AC50: < 0.005 µM (active)

## Cc1nc2cnc(OCc3ccccc3)nc2n(CCc2ccccc2)c1=O
[5]
  AC50: 25.1 µM (inconclusive)

## CCOC(=O)c1cccc(NC(=O)CSc2nc3ccccc3c(=O)n2CCOC)c1
[6]
  IC50: > 79 µM (inactive)

## Cc1ccc(NC(=O)C2C3CCCC2C3c2ccccc2)cc1C (configuration not stated)
[5]
  AC50: 8.91 µM (inconclusive)

## CCCCC(NC(=O)Cc1c(C)c2cc3c(C)c(C)oc3c(C)c2oc1=O)C(=O)O (configuration not stated)
[13]
  AC50: > 100 µM (inactive)

## CC[C@H](C)[C@@H](C(=O)NCCCCCCCCCCC(=O)N1CCN(C(=O)OC(C)(C)C)CC1)n1cc(CCCCCNC(=O)OC(C)(C)C)nn1
[1]
  AC50: 4.08 µM (active)

## COc1cccc(C(=O)Nc2c(C(N)=O)oc3ccccc23)c1
[6]
  IC50: > 79 µM (inactive)

## Cc1onc(-c2ccccc2)c1C(=O)OCC(=O)Nc1ccc(C#N)cc1
[9]
  CC50: 8 µM (active)

## Fc1cccc(C2NC(S)=NC3=C2N2CCC3CC2)c1 (configuration not stated)
[10]
  AC50: 3.16 µM (inconclusive)
[5]
  AC50: 25.1 µM (inconclusive)

## Cc1cc(SCC(=O)Nc2cccc(S(=O)(=O)NC3=NCCCCC3)c2)nc2ccccc12
[9]
  CC50: 40.6 µM (active)

## CC(=O)C1=C(C)NC(SCC(=O)c2cc(Cl)ccc2Cl)=C(C#N)C1c1ccco1 (configuration not stated)
[9]
  CC50: 14.2 µM (active)

## N#Cc1ccc(NC(=O)CN2C(=O)NC3(CCCCCCC3)C2=O)cc1Cl
[9]
  CC50: 30.3 µM (active)

## O=S(=O)(c1ccc(F)cc1)N1CCC(c2nc(O)c3nnn(Cc4ccc5c(c4)OCCO5)c3n2)CC1
[9]
  CC50: 19.6 µM (active)

## CCc1nn(CCCC(=O)NCc2ccc(C)cc2)c(=O)c2cc3occc3n12
[2]
  EC50: > 38 µM (not active)
[3]
  EC50: > 160 µM (inconclusive)

## O=C(Nc1cccs1)NC1CCCC1
[13]
  AC50: 1.83 µM (active)

## O=C(CCCN1C(=O)c2cccc3cccc(c23)C1=O)N1CCN(c2ccc(F)cc2)CC1
[9]
  CC50: 46.2 µM (active)

## COc1cccc(-c2cc3nc(-c4ccccc4)cc(N4CCC5(CC4)OCCO5)n3n2)c1
[4]
  AC50: 2 µM (inconclusive)
[14]
  EC50: > 30 µM (not active)
[5]
  AC50: 20 µM (inconclusive)
[15]
  EC50: 1.82 µM (active)

## CCOc1ccc(S(=O)(=O)N(C)CCO)cc1-c1nc(O)c2c(n1)c(C(C)(C)C)nn2C
[6]
  IC50: > 79 µM (inactive)

## CCN(CC)c1ccc(NC(=O)C2=CCN(S(=O)(=O)c3ccc(F)cc3)CC2)c(C)c1
[13]
  AC50: 5.05 µM (active)

## O=C(N(c1ccccc1)c1ccccc1)N(c1ccccc1)c1ccccc1
[9]
  CC50: 17 µM (active)

## Cc1ccc2[nH]cc(CCNC(=O)c3cccs3)c2c1
[13]
  AC50: 26.2 µM (active)

## O=C(COc1cccc2c1CCNC2=O)Nc1ccc(Cl)cc1
[6]
  IC50: 11.6 µM (active)

## FC(F)(F)c1nnc2ccc(N3CCCC3)nn12
[6]
  IC50: 39.7 µM (inactive)

## N=C(NNS(=O)(=O)c1ccccc1)c1ccccn1
[6]
  IC50: 23.5 µM (active)

## COc1ccc(Cl)cc1NC(=O)CN(C)C(=O)Cc1nnc(O)c2ccccc12
[6]
  IC50: > 79 µM (inactive)

## Oc1c(Br)cc(Br)cc1/C=N/c1ccc2c(c1)OCCO2
[6]
  IC50: 17.6 µM (active)
[16]
  IC50: 119 µM (active)

## COc1ccc(/N=C/c2cc(Cl)ccc2O)cc1Cl
[6]
  IC50: 17.5 µM (active)

## CC(C)(C)[S@+]([O-])N1Cc2cc(C(=O)N[C@H]3CCN(Cc4ccccc4)C3)nc(-c3cccc(-c4ccncc4)c3)c2[C@@H]1CCO
[17]
  AC50: 6.19 µM (active)

## O=C(C[n+]1ccccc1)N/N=C/c1cccs1
[2]
  EC50: > 38 µM (not active)
[3]
  EC50: > 150 µM (inactive)

## CO[C@H]1CN(C)C(=O)c2cc(NC(=O)C3CC3)ccc2OC[C@H](C)N(Cc2cc(F)ccc2F)C[C@@H]1C
[17]
  AC50: 6.44 µM (active)

## CO[C@@H]1CN(C)C(=O)c2ccc(NC(=O)Nc3ccc(C(F)(F)F)cc3)cc2OC[C@@H](C)NC[C@@H]1C
[17]
  AC50: 4.23 µM (active)

## C[C@H](CO)N1C[C@H](C)[C@@H](CN(C)C(=O)[C@H](C)c2ccccc2)OCc2ccccc2-c2c(n(C)c3ccccc23)C1=O
[17]
  AC50: 4.07 µM (active)

## CN1c2ccc(C3=CCCCC3)cc2[C@H]2[C@H](CCN2C(=O)C2CC2)[C@@H]1CO
[17]
  AC50: 0.964 µM (active)
